According to PubChem BioAssay AID248 (DTP/NCI, 2004):
Toxic doses and inconclusive results are not listed.

System: L1210 leukemia ip in BDF1 mice, survival T/C
Experiment: NCI In Vivo Anticancer Drug Screen. Data for tumor model L1210 Leukemia (intraperitoneal) in B6D2F1 (BDF1) mice
Conditions: endpoint: mean survival time, higher = longer survival
How it was run: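 Survival endpoint. Drug-treated group vs vehicle group, expressed as T divided by C. Tumor passaged by transplantation.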

[1] = dose: 100.0 mg/kg/injection, schedule: Q01DX001 (ip), vehicle: carboxymethylcellulose (CMC)
[2] = dose: 200.0 mg/kg/injection, schedule: Q01DX001 (ip), vehicle: carboxymethylcellulose (CMC)
[3] = dose: 400.0 mg/kg/injection, schedule: Q01DX001 (ip), vehicle: carboxymethylcellulose (CMC)
[4] = dose: 100.0 mg/kg/injection, schedule: Q01DX001 (ip), vehicle: saline
[5] = dose: 50.0 mg/kg/injection, schedule: Q01DX009 (ip), vehicle: Klucel (hydroxypropylcellulose) (HPC)
[6] = dose: 100.0 mg/kg/injection, schedule: Q01DX009 (ip), vehicle: Klucel (hydroxypropylcellulose) (HPC)
[7] = dose: 100.0 mg/kg/injection, schedule: Q04DX003 (ip), vehicle: Klucel (hydroxypropylcellulose) (HPC)
[8] = dose: 200.0 mg/kg/injection, schedule: Q01DX009 (ip), vehicle: Klucel (hydroxypropylcellulose) (HPC)
[9] = dose: 200.0 mg/kg/injection, schedule: Q04DX003 (ip), vehicle: Klucel (hydroxypropylcellulose) (HPC)
[10] = dose: 100.0 mg/kg/injection, schedule: Q04DX003 (ip), vehicle: saline
[11] = dose: 200.0 mg/kg/injection, schedule: Q04DX003 (ip), vehicle: saline
[12] = dose: 400.0 mg/kg/injection, schedule: Q04DX003 (ip), vehicle: saline
[13] = dose: 400.0 mg/kg/injection, schedule: Q04DX003 (ip), vehicle: Klucel (hydroxypropylcellulose) (HPC)
[14] = dose: 200.0 mg/kg/injection, schedule: Q01DX001 (ip), vehicle: saline
[15] = dose: 400.0 mg/kg/injection, schedule: Q01DX001 (ip), vehicle: saline
[16] = dose: 100.0 mg/kg/injection, schedule: Q01DX009 (ip), vehicle: saline with Tween-80
[17] = dose: 100.0 mg/kg/injection, schedule: Q04DX003 (ip), vehicle: saline with Tween-80
[18] = dose: 400.0 mg/kg/injection, schedule: Q04DX003 (ip), vehicle: saline with Tween-80

For CC(Cl)CN(Cc1cc(CN(CC(C)Cl)CC(C)Cl)c(O)cc1O)CC(C)Cl (stereo not given), the T/C (dose: 12.5 mg/kg/injection, schedule: Q01DX001 (sc), vehicle: olive oil, sesame oil, peanut oil) was 102 % of control, the T/C (dose: 12.5 mg/kg/injection, schedule: Q01DX015 (sc), vehicle: olive oil, sesame oil, peanut oil) was 95 % of control and the T/C (dose: 25.0 mg/kg/injection, schedule: Q01DX001 (sc), vehicle: olive oil, sesame oil, peanut oil) was 100 % of control. The T/C (dose: 25.0 mg/kg/injection, schedule: Q01DX015 (sc), vehicle: olive oil, sesame oil, peanut oil) was 110 % of control, the T/C (dose: 50.0 mg/kg/injection, schedule: Q01DX001 (ip), vehicle: carboxymethylcellulose (CMC)) was 93 % of control and the T/C (dose: 50.0 mg/kg/injection, schedule: Q01DX001 (sc), vehicle: olive oil, sesame oil, peanut oil) was 96 % of control. For the same compound, the T/C (dose: 50.0 mg/kg/injection, schedule: Q01DX015 (sc), vehicle: olive oil, sesame oil, peanut oil) was 93 % of control, the T/C [1] was 110 % of control and the T/C (dose: 100.0 mg/kg/injection, schedule: Q01DX001 (sc), vehicle: olive oil, sesame oil, peanut oil) was 102 % of control. The T/C (dose: 100.0 mg/kg/injection, schedule: Q01DX015 (sc), vehicle: olive oil, sesame oil, peanut oil) was 95 % of control, the T/C [2] was 110 % of control and the T/C (dose: 200.0 mg/kg/injection, schedule: Q01DX015 (sc), vehicle: olive oil, sesame oil, peanut oil) was 112 % of control. For the same compound, the T/C [3] was 104 % of control, the T/C (dose: 400.0 mg/kg/injection, schedule: Q01DX015 (sc), vehicle: olive oil, sesame oil, peanut oil) was 104 % of control and the T/C (dose: 600.0 mg/kg/injection, schedule: Q01DX015 (sc), vehicle: olive oil, sesame oil, peanut oil) was 102 % of control.
For OCC(O)C(O)C(OC1OC(CO)C(O)C(O)C1O)C(O)CO (stereo not given), the T/C (dose: 100.0 mg/kg/injection, schedule: Q01DX001 (ip), vehicle: Klucel (hydroxypropylcellulose) (HPC)) was 99 % of control, the T/C (dose: 200.0 mg/kg/injection, schedule: Q01DX001 (ip), vehicle: Klucel (hydroxypropylcellulose) (HPC)) was 89 % of control and the T/C (dose: 400.0 mg/kg/injection, schedule: Q01DX001 (ip), vehicle: Klucel (hydroxypropylcellulose) (HPC)) was 99 % of control.
In the case of COc1cc(OC(C)=O)c2ncccc2c1OC(C)=O, the T/C [4] is reported as 94 % of control.
With CC(=O)CC(=O)Oc1ccccc1OC(C)=O the T/C [5] was 103 % of control, the T/C [6] was 101 % of control and the T/C [7] was 100 % of control. For the same compound, the T/C [8] was 114 % of control and the T/C [9] was 102 % of control.
CN(C)C(=O)C1C2C=CC(CC2)C1C(=O)N(C)C (stereo not given) was tested, and the T/C [10] was 96 % of control, the T/C [11] was 96 % of control and the T/C [12] was 96 % of control.
With Nc1cc(Nc2cccc(Br)c2)nc(N)n1 the T/C (dose: 100.0 mg/kg/injection, schedule: Q04DX002 (ip), vehicle: Klucel (hydroxypropylcellulose) (HPC)) was 97 % of control and the T/C (dose: 200.0 mg/kg/injection, schedule: Q04DX002 (ip), vehicle: Klucel (hydroxypropylcellulose) (HPC)) was 108 % of control.
O=C(O)c1nc2ccccc2[nH]c1=O was tested, and the T/C [7] was 88 % of control, the T/C [9] was 92 % of control and the T/C [13] was 87 % of control.
With CCn1c2ccccc2c2c(C)c3cnccc3c(C)c21 the T/C (dose: 37.5 mg/kg/injection, schedule: Q04DX003 (ip), vehicle: saline) was 94 % of control, the T/C (dose: 62.5 mg/kg/injection, schedule: Q01DX009 (ip), vehicle: saline with Tween-80) was 193 % of control and the T/C (dose: 75.0 mg/kg/injection, schedule: Q04DX003 (ip), vehicle: saline) was 90 % of control. The T/C (dose: 125.0 mg/kg/injection, schedule: Q01DX009 (ip), vehicle: saline with Tween-80) was 101 % of control, the T/C (dose: 150.0 mg/kg/injection, schedule: Q04DX003 (ip), vehicle: saline) was 92 % of control and the T/C (dose: 250.0 mg/kg/injection, schedule: Q01DX009 (ip), vehicle: saline with Tween-80) was 105 % of control. The T/C (dose: 300.0 mg/kg/injection, schedule: Q04DX003 (ip), vehicle: saline) was 94 % of control.
In the case of OCC1OC(CO)(OC2CC3C(O)CC(O)CC3OC2c2cc(O)c(O)c(O)c2)C(O)C1O (stereo not given), the T/C [1] is reported as 103 % of control, the T/C [2] is reported as 93 % of control and the T/C [3] is reported as 92 % of control.
For CCCCCCCCCCCC(=O)NC(=S)Nc1ccc2ccccc2c1, the T/C [7] was 86 % of control, the T/C [9] was 86 % of control and the T/C [13] was 86 % of control.
In the case of CCN(CC)CCCC(C)Nc1nccc(/C=C/c2ccc(Cl)cc2)n1 (stereo not given), the T/C [4] is reported as 96 % of control, the T/C [7] is reported as 90 % of control and the T/C [14] is reported as 105 % of control. For the same compound, the T/C [15] was 100 % of control and the T/C [13] was 94 % of control.
For CC1=C(c2ccccc2)OS(=O)(=O)NC1=O, the T/C [10] was 100 % of control, the T/C [11] was 97 % of control and the T/C [12] was 101 % of control.
NC(=S)N/N=C1/CCc2ccccc21 was tested, and the T/C [1] was 113 % of control.
With CCOC(=O)/C(C)=C\c1c(Br)cc(Br)c(N)c1Br the T/C (dose: 75.0 mg/kg/injection, schedule: Q01DX009 (ip), vehicle: Klucel (hydroxypropylcellulose) (HPC)) was 97 % of control, the T/C (dose: 150.0 mg/kg/injection, schedule: Q01DX009 (ip), vehicle: Klucel (hydroxypropylcellulose) (HPC)) was 97 % of control and the T/C (dose: 300.0 mg/kg/injection, schedule: Q01DX009 (ip), vehicle: Klucel (hydroxypropylcellulose) (HPC)) was 95 % of control.
For CCN(CC)CCOC(=O)C(c1ccccc1)C1CCCCC1 (stereo not given), the T/C (dose: 6.25 mg/kg/injection, schedule: Q01DX009 (ip), vehicle: saline) was 105 % of control, the T/C (dose: 12.5 mg/kg/injection, schedule: Q01DX009 (ip), vehicle: saline) was 95 % of control and the T/C (dose: 25.0 mg/kg/injection, schedule: Q01DX009 (ip), vehicle: saline) was 95 % of control. For the same compound, the T/C (dose: 50.0 mg/kg/injection, schedule: Q01DX009 (ip), vehicle: saline) was 103 % of control and the T/C (dose: 100.0 mg/kg/injection, schedule: Q01DX009 (ip), vehicle: saline) was 103 % of control.
CC1(C)N=C(N)N=C(N)N1c1cccc(/C=C/c2cccc([N+](=O)[O-])c2)c1 was tested, and the T/C [5] was 102 % of control, the T/C [6] was 90 % of control and the T/C [8] was 106 % of control.
In the case of CC(=O)N(c1ccccc1)c1cc(Cl)cc[n+]1[O-], the T/C [4] is reported as 96 % of control, the T/C [14] is reported as 96 % of control and the T/C [15] is reported as 97 % of control.
In the case of Cc1ncc([N+](=O)[O-])n1C, the T/C [7] is reported as 100 % of control, the T/C [9] is reported as 100 % of control and the T/C [13] is reported as 97 % of control.
For O=C(CCCC(=O)N/N=C/c1ccc(Cl)c(Cl)c1)N/N=C\c1ccc(Cl)c(Cl)c1, the T/C (dose: 50.0 mg/kg/injection, schedule: Q01DX001 (ip), vehicle: saline) was 116 % of control, the T/C [4] was 110 % of control and the T/C [14] was 118 % of control. The T/C [15] was 100 % of control.
For O=C(c1ccccc1)C(C(=O)c1ccccc1)C(C[N+](=O)[O-])c1ccccc1 (stereo not given), the T/C (dose: 100.0 mg/kg/injection, schedule: Q01DX001 (ip), vehicle: gum acacia) was 86 % of control, the T/C (dose: 200.0 mg/kg/injection, schedule: Q01DX001 (ip), vehicle: gum acacia) was 86 % of control and the T/C (dose: 400.0 mg/kg/injection, schedule: Q01DX001 (ip), vehicle: gum acacia) was 90 % of control.
In the case of C[n+]1ccc(/C=C/c2c(Cl)cccc2Cl)c2ccccc21, the T/C (dose: 3.13 mg/kg/injection, schedule: Q04DX003 (ip), vehicle: Klucel (hydroxypropylcellulose) (HPC)) is reported as 94 % of control, the T/C (dose: 6.25 mg/kg/injection, schedule: Q04DX003 (ip), vehicle: Klucel (hydroxypropylcellulose) (HPC)) is reported as 98 % of control and the T/C (dose: 12.5 mg/kg/injection, schedule: Q04DX003 (ip), vehicle: Klucel (hydroxypropylcellulose) (HPC)) is reported as 93 % of control.
For O=[N+]([O-])c1ccc2c(c1[N+](=O)[O-])CCCC2, the T/C [16] was 93 % of control, the T/C [17] was 93 % of control and the T/C (dose: 200.0 mg/kg/injection, schedule: Q01DX009 (ip), vehicle: saline with Tween-80) was 98 % of control. For the same compound, the T/C (dose: 200.0 mg/kg/injection, schedule: Q04DX003 (ip), vehicle: saline with Tween-80) was 93 % of control, the T/C (dose: 400.0 mg/kg/injection, schedule: Q01DX009 (ip), vehicle: saline with Tween-80) was 98 % of control and the T/C [18] was 98 % of control.
CCOC(=O)c1ccc(N=Cc2cc(Cl)cc(Cl)c2O)cc1 was tested, and the T/C [4] was 95 % of control, the T/C [14] was 100 % of control and the T/C [15] was 93 % of control.
In the case of S=c1nn[nH]n1C1CCCCC1, the T/C (dose: 25.0 mg/kg/injection, schedule: Q01DX009 (ip), vehicle: saline with Tween-80) is reported as 92 % of control, the T/C (dose: 50.0 mg/kg/injection, schedule: Q01DX009 (ip), vehicle: saline with Tween-80) is reported as 88 % of control and the T/C [16] is reported as 90 % of control. The T/C [17] was 103 % of control and the T/C [18] was 87 % of control.
